Measurements taken from the NIST ThermoML archive (doi:10.1021/je050358g).

Conditions: Liquid, vibrating tube

CCCCCCCCCCCCCC[P+](CCCCCC)(CCCCCC)CCCCCC.[Cl-] [trihexyl(tetradecyl)phosphonium chloride]
mass density [kg/m3]
Conditions | 298.13 K | 303.15 K | 308.13 K | 313.15 K | 318.15 K | 323.14 K | 328.16 K | 333.14 K
190 kPa | 891.62 | 888.51 | 885.65 | 882.72 | 879.82 | 876.69 | 873.88 | 870.88
1000 kPa | 892.02 | 888.97 | 886.07 | 883.19 | 880.27 | 877.16 | 874.33 | 871.36
3000 kPa | 893.07 | 890.03 | 887.18 | 884.3 | 881.41 | 878.29 | 875.5 | 872.51
5010 kPa | 894.09 | 891.06 | 888.26 | 885.4 | 882.52 | 879.43 | 876.64 | 873.64
7500 kPa | 895.36 | 892.35 | 889.57 | 886.75 | 883.89 | 880.82 | 878.05 | 875.05
10000 kPa | 896.59 | 893.6 | 890.87 | 888.06 | 885.24 | 882.18 | 879.42 | 876.42
15010 kPa | 899.02 | 896.1 | 893.38 | 890.63 | 887.86 | 884.84 | 882.11 | 879.11
19990 kPa | 901.33 | 898.48 | 895.82 | 893.11 | 890.37 | 887.38 | 884.69 | 881.72
25010 kPa | 903.6 | 900.78 | 898.17 | 895.49 | 892.81 | 889.86 | 887.2 | 884.25
29990 kPa | 905.77 | 903.01 | 900.42 | 897.81 | 895.15 | 892.24 | 889.62 | 886.71
35010 kPa | 907.93 | 905.17 | 902.63 | 900.04 | 897.43 | 894.57 | 891.98 | 889.11
39990 kPa | 910.01 | 907.28 | 904.75 | 902.21 | 899.63 | 896.82 | 894.24 | 891.46
45010 kPa | 912.05 | 909.34 | 906.82 | 904.32 | 901.78 | 899.01 | 896.49 | 893.73
50000 kPa | 914.03 | 911.34 | 908.83 | 906.35 | 903.87 | 901.13 | 898.62 | 895.96
55000 kPa | 915.93 | 913.27 | 910.78 | 908.34 | 905.9 | 903.19 | 900.74 | 898.14
59990 kPa | 917.83 | 915.17 | 912.67 | – | 907.87 | 905.21 | 902.79 | 900.26
65000 kPa | 919.63 | 916.99 | 914.51 | – | 909.78 | 907.16 | 904.8 | 902.35
